Here are results for nine compounds from PubChem BioAssay (NCI).

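Following 48 hours of exposure in 96-well plates, responses at five concentrations were used to interpolate endpoints linearly. GI50 is the concentration that inhibits growth by half. Definition used: TGI = concentration required for complete inhibition of growth.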

Among the test systems are BT-549 breast; SR leukemia; NCI-H23 lung; A549 NSCLC; HCT-116 colon; CAKI-1 renal; UACC-257 melanoma; ACHN renal; HT29 colon; NCI-H226 lung.
Common to all, as to assay: DTP human tumour cell line panel, 48 h

As for `N#Cc1ccc(N2Cc3ccccc3OC3=C2C(=O)c2c(O)ccc(O)c2C3=O)cc1`, the GI50 (commonly the concentration at which growth is held to half of that of the control) with BT-549 breast was 0.572 µM; in the experiment on SR leukemia, 56.3 nM; in the experiment with NCI-H23 lung, 1.32 µM; in the experiment with A549 NSCLC it was 2.49 µM; in the experiment on HCT-116 colon, 102 nM; with CAKI-1 renal it was 0.0992 µM. The GI50 with UACC-257 melanoma is 258 nM; in the experiment on ACHN renal, 0.0547 µM; in the experiment on HT29 colon it was 0.258 µM; with NCI-H226 lung it was 0.282 µM. For the same compound, the TGI (commonly the concentration giving total growth inhibition) turned out to be 1.26 µM with BT-549 breast; 4.2 µM in the experiment on NCI-H23 lung; 9.76 µM in the experiment with A549 NSCLC; 0.35 µM in the experiment with HCT-116 colon; 0.366 µM with CAKI-1 renal; 0.818 µM in the experiment on UACC-257 melanoma. Moreover, the TGI is 0.16 µM with ACHN renal, 0.875 µM in the experiment on HT29 colon and 1.13 µM in the experiment on NCI-H226 lung.
For `O=[N+]([O-])c1ccc2c(N3CCC(CCCC4CCN(c5ncnc6cc([N+](=O)[O-])ccc56)CC4)CC3)ncnc2c1`, the GI50 with BT-549 breast is 6.33 µM; in the experiment with SR leukemia, 2500 nM; with NCI-H23 lung it was 2.29 µM; with A549 NSCLC it was 38.1 µM; in the experiment on HCT-116 colon it was 514 nM; in the experiment on CAKI-1 renal, 5.29 µM. The GI50 was 1550 nM in the experiment on UACC-257 melanoma, above 48 µM in the experiment on ACHN renal, 21.7 µM in the experiment with HT29 colon and 9.47 µM with NCI-H226 lung. Moreover, the TGI with BT-549 breast was above 70.6 µM; in the experiment on SR leukemia, above 100 µM; in the experiment on NCI-H23 lung it was above 100 µM; in the experiment on A549 NSCLC, above 100 µM; in the experiment with HCT-116 colon, 97.6 µM; with CAKI-1 renal, above 100 µM. For the same compound, the TGI with UACC-257 melanoma is above 100 µM; in the experiment on ACHN renal, above 100 µM; in the experiment on HT29 colon it was above 86.4 µM; in the experiment with NCI-H226 lung, above 75.3 µM.
As to `OCC1OC(OCC(O)C(O)C(O)C(/C=N/Nc2ccccc2)=N/Nc2ccccc2)C(O)C(O)C1O` (stereo not drawn), the TGI in the experiment on BT-549 breast, with SR leukemia, in the experiment with NCI-H23 lung, in the experiment on A549 NSCLC, with HCT-116 colon and in the experiment with CAKI-1 renal was above 100 µM throughout. For the same compound, the TGI in the experiment with UACC-257 melanoma, in the experiment with ACHN renal and in the experiment with HT29 colon was above 100 µM each time.
As to `C=CC(C)(O)/C=C/C=C(\C)C(CC1OC1(C)C)OC(=O)/C(C)=C\C` (stereo not drawn), the TGI with BT-549 breast, in the experiment with SR leukemia, with NCI-H23 lung, in the experiment on A549 NSCLC, with HCT-116 colon and with CAKI-1 renal was above 100 µM each time. In addition, the total growth inhibition concentration (TGI) with UACC-257 melanoma, in the experiment with ACHN renal and in the experiment on HT29 colon was above 100 µM each time.
For the compound `COc1cccc2c1-c1c(c3ccc([N+](=O)[O-])cc3c(=O)n1CCCCl)C2=O`, the GI50 in the experiment on BT-549 breast was 17.1 µM; in the experiment with SR leukemia, 202 nM; in the experiment on NCI-H23 lung it was 24.4 µM; in the experiment on A549 NSCLC it was above 50 µM; with HCT-116 colon it was 2480 nM; in the experiment with CAKI-1 renal, 1.13 µM. The GI50 in the experiment with UACC-257 melanoma was above 50000 nM; with HT29 colon, above 50 µM; in the experiment with NCI-H226 lung, 5.82 µM. In addition, the TGI in the experiment on BT-549 breast is above 50 µM; in the experiment with SR leukemia, above 50 µM; in the experiment with NCI-H23 lung it was above 50 µM; with A549 NSCLC, above 50 µM; in the experiment with HCT-116 colon it was above 50 µM; in the experiment on CAKI-1 renal it was 24.1 µM. In addition, the values for the TGI in the experiment with UACC-257 melanoma, in the experiment on HT29 colon and in the experiment with NCI-H226 lung were above 50 µM, above 50 µM and 41.5 µM, respectively.
`C/C(=C\C1=C(Cl)C(=O)c2ccccc2C1=O)C(=O)O`: the GI50 in the experiment with BT-549 breast is 14.2 µM; with SR leukemia, 24200 nM; with NCI-H23 lung, 21.5 µM; with A549 NSCLC it was 21.9 µM; with HCT-116 colon, 28400 nM; in the experiment on CAKI-1 renal it was 22.1 µM. The GI50 with ACHN renal is 18.5 µM; with HT29 colon, 20.1 µM; in the experiment on NCI-H226 lung, 19.6 µM. For the same compound, the TGI was 27.5 µM in the experiment on BT-549 breast; above 100 µM with SR leukemia; 45.7 µM in the experiment on NCI-H23 lung; 43 µM in the experiment on A549 NSCLC; above 100 µM in the experiment with HCT-116 colon; 36.6 µM in the experiment on CAKI-1 renal. Further, the values for the TGI in the experiment with ACHN renal, with HT29 colon and in the experiment with NCI-H226 lung were 32.7 µM, 36.7 µM and 37.5 µM, respectively.
Consider `O=S(=O)(O)c1ccc(-c2nnc(-c3ccccn3)nc2-c2ccc(S(=O)(=O)O)o2)o1`, for which the TGI in the experiment on BT-549 breast, with SR leukemia, in the experiment with NCI-H23 lung, in the experiment on A549 NSCLC, with HCT-116 colon and in the experiment with CAKI-1 renal was above 100 µM in each case. Also, the total growth inhibition concentration (TGI) in the experiment on ACHN renal, in the experiment with HT29 colon and in the experiment with NCI-H226 lung was above 100 µM in each case.
Consider `Cc1cc(C2=NNC(=O)Cc3cc4c(cc32)OCCO4)cc(C)c1N`, for which the GI50 was 3.36 µM with BT-549 breast; 310 nM with SR leukemia; 2.89 µM in the experiment with NCI-H23 lung; 3.2 µM in the experiment on A549 NSCLC; 2350 nM in the experiment on HCT-116 colon; 0.901 µM with CAKI-1 renal. Besides, the GI50 in the experiment with ACHN renal is 6.48 µM; with HT29 colon, 0.746 µM; in the experiment on NCI-H226 lung it was 8.9 µM. Also, the TGI is above 100 µM in the experiment with BT-549 breast; above 100 µM in the experiment with SR leukemia; above 100 µM with NCI-H23 lung; above 100 µM in the experiment on A549 NSCLC; above 100 µM in the experiment with HCT-116 colon; 7.66 µM in the experiment on CAKI-1 renal. For the same compound, the TGI in the experiment on ACHN renal, with HT29 colon and in the experiment on NCI-H226 lung was above 100 µM throughout.
Consider `CCOC(=O)c1c2c(n(Cc3ccccc3)c1C)-c1ccccc1C(=O)C2=O`, for which the GI50 with BT-549 breast is 15.7 µM; in the experiment on SR leukemia it was 3390 nM; in the experiment with NCI-H23 lung, 12.1 µM; with A549 NSCLC it was 16.8 µM; in the experiment on HCT-116 colon it was 11600 nM; in the experiment on CAKI-1 renal, 17.2 µM. Also, the GI50 in the experiment on UACC-257 melanoma was 28400 nM; in the experiment on ACHN renal it was 12.9 µM; in the experiment on HT29 colon, 11.8 µM. In addition, the TGI came out at 29.7 µM in the experiment on BT-549 breast; 19 µM in the experiment on SR leukemia; 27 µM in the experiment with NCI-H23 lung; 36.4 µM in the experiment with A549 NSCLC; 25.2 µM in the experiment on HCT-116 colon; 36.6 µM in the experiment on CAKI-1 renal. Moreover, the TGI in the experiment on UACC-257 melanoma was found to be 69.2 µM; in the experiment on ACHN renal, 30.2 µM; with HT29 colon, 25.7 µM.
